Laboratory results from US11999806B2, “Broad-spectrum polypeptide against enterovirus and application thereof” (WUHAN INSTITUTE OF VIROLOGY, CHINESE ACADEMY OF SCIENCES, priority 2018, dated 2024).
“And” between values parts separate entries of the source, which are not always exact repeats. Equal values may be shown once. Read-outs that look alike come from different tables or passages of the source. Non-standard residues stand in square brackets, D forms with d. Residues, ends and D or L forms follow the SMILES beside them. No end group written: not given here.

Legend:
EV71 = test: Anti-EV71 efficiency in 293T cells, viral RNA by qRT-PCR; assay type: cell-based, enterovirus 71; conditions: for antiviral effect of P2 variants as EV71 inhibitor, in words: FIG. 5, 293T cells, compared with P2
Description: • (1) 293T cells, Vero cells and Huh7.5 cells were plated in 24-well plates respectively. • (2) After the cells reached 70%-80% confluence, the MEM medium containing 10% serum was replaced with a MEM medium containing 2% serum (0.5 ml/well), and 5 μl of 10^6 PFU/mL EV71 virus per well was added. • (3) After 1 h, polypeptide P2 was added to different cells at a final concentration of 0.01 μM, 0.1 μM, 1 μM, 10 μM, and 50 μM, respectively. • (4) Samples were collected 24 hours after virus infection, and RNA was extracted with a total RNA extraction kit as follows. • (5) The supernatant in each well was discarded, then 350 μl of TRK Lysis Buffer was added to the well and the plate was shaken on the shaker for 5 minutes. • (6) 350 μl of 70% ethanol (DEPC-treated) was added to the well and the plate was shaken on the shaker for 5 minutes. • (7) The mixture in the well was transferred to a RNA extraction column and centrifuged at 12,000 g for 1 min. • (8) The solution collected in the recovery tube was added back to the column and centrifuged at 12,000 g for 1 min. • (9) RNA washing buffer 1 was added to the column and centrifuged at 12,000 g for 30 s. • (10) RNA washing buffer 2 was added to the column and centrifuged at 12,000 g for 1 min. • (11) Step (10) was repeated once. • (12) The empty column was centrifuged at 12,000 g for 2 min to completely remove residual RNA washing buffer. • (13) 50 μl DEPC-treated H2O was added to the column and centrifuge at 12,000 g for 2 min. • (14) 2 μl RNA sample was used according to one step qRT-PCR kit for fluorescence quantification experiment. […]

CVA16 = assay type: cell-based, Coxsackievirus A16; conditions: CCK-8; for Virus inhibition rate (%): CVA16, RD cells, 24 h; for IC50: read-out: IC50 against CVA16
Vero cells = test: Cytotoxicity by CCK-8 in Vero cells; assay type: cell-based; conditions: for Cell viability (%): 24 h
Description: (§1) The experiment was performed as follows. • (1) Vero cells were plated in a 96-well plate at 100 μl per well. • (2) After the cells reached 70%-80% confluence, the MEM medium containing 10% serum was replaced with a MEM medium containing 2% serum. Then, polypeptide BP8, BP10 or BP15 was added to generate gradient concentrations of […], […], 12.5 μM, 25 μM, 50 μM, 100 μM, and 200 μM (final concentrations), respectively. • (3) The samples were collected 24 hours after the addition of the polypeptide, and 10 μl of live cell detection reagent CCK-8 was added to each well and mixed well. • (4) The plate was placed at 37° C. for 4 h. • (5) The absorbance value at OD450 was measured with a microplate reader.

[1] = Cytotoxicity by CCK-8 in Vero cells; assay type: cell-based; conditions: 24 h, read-out: Cell viability (%)
Description: as §1

## CC[C@@H](C)[C@@H](NC(=O)[C@H]1CCCN1C(C)=O)C(=O)N[C@@H](C(=O)N[C@H](Cc1c[nH]c2ccccc12)C(=O)NCC(=O)N[C@H](CCC(N)=O)C(=O)N[C@H](CCC(=O)O)C(=O)N[C@H](CCCNC(=N)N)C(=O)N[C@H](CS)C(=O)N[C@H](Cc1ccc(O)cc1)C(=O)N[C@H](CCC(N)=O)C(=O)N[C@H](CCCNC(=N)N)C(=O)N[C@@H](C(=O)N[C@H](CCC(=O)O)C(=O)N[C@H](CCC(=O)O)C(=O)N1CCC[C@@H]1C(=O)N1CCC[C@@H]1C(=O)N[C@H](CCCNC(=N)N)C(=O)N[C@H](CCCNC(=N)N)C(=O)N[C@H](CCCNC(=N)N)C(=O)N[C@H](CCC(N)=O)C(=O)N[C@H](CCCNC(=N)N)C(=O)N[C@H](CCCNC(=N)N)C(=O)N[C@H](CCCCN)C(=O)N[C@H](CCCCN)C(=O)N[C@H](CCCNC(=N)N)C(=O)NCC(=O)N[C@H](Cc1ccc(O)cc1)C(N)=O)C(C)C)[C@H](C)CC [3A-EP-DRI]
EV71
  antiviral effect of P2 variants as EV71 inhibitor, in words: improved antiviral effect

## CCCCCCCCCCCCCCCC(=O)NCCCC[C@H](NC(=O)CCOCCOCCOCCOCCNC(=O)[C@H](CCCCN)NC(=O)[C@H](C)NC(=O)[C@@H]1CCCN1C(=O)[C@@H](NC(=O)[C@@H](NC(=O)[C@H](Cc1c[nH]c2ccccc12)NC(=O)CNC(=O)[C@H](CCC(N)=O)NC(=O)[C@H](CCC(=O)O)NC(=O)[C@H](CCCNC(=N)N)NC(=O)[C@H](CS)NC(=O)[C@H](Cc1ccc(O)cc1)NC(=O)[C@H](CCC(N)=O)NC(=O)[C@H](CCCNC(=N)N)NC(=O)[C@@H](NC(=O)[C@H](CCC(=O)O)NC(=O)[C@@H](N)CCC(=O)O)C(C)C)[C@@H](C)CC)[C@@H](C)CC)C(=O)O [3A-EP-PEG4-PA]
EV71
  antiviral effect of P2 variants as EV71 inhibitor, in words: improved antiviral effect

## CC(=O)N[C@H](CCCNC(=N)N)C(=O)N[C@H](CS)C(=O)N[C@H](Cc1ccc(O)cc1)C(=O)N[C@H](CCC(N)=O)C(=O)N[C@H](CCCNC(=N)N)C(=O)N[C@@H](C(=O)N[C@H](CCC(=O)O)C(=O)N[C@H](CCC(=O)O)C(=O)N1CCC[C@@H]1C(=O)N1CCC[C@@H]1C(=O)N[C@H](CCCNC(=N)N)C(=O)N[C@H](CCCNC(=N)N)C(=O)N[C@H](CCCNC(=N)N)C(=O)N[C@H](CCC(N)=O)C(=O)N[C@H](CCCNC(=N)N)C(=O)N[C@H](CCCNC(=N)N)C(=O)N[C@H](CCCCN)C(=O)N[C@H](CCCCN)C(=O)N[C@H](CCCNC(=N)N)C(=O)NCC(=O)N[C@H](Cc1ccc(O)cc1)C(N)=O)C(C)C [ER-DRI] (Ac-[dR][dC][dY][dQ][dR][dV][dE][dE][dP][dP][dR][dR][dR][dQ][dR][dR][dK][dK][dR]G[dY]-NH2)
CVA16; 0.15625 μM
  Virus inhibition rate (%): 7.885% and 3.667% and 8.802%
CVA16; 0.3125 μM
  Virus inhibition rate (%): 12.1% and 11.19% and 21.45%
CVA16; 0.625 μM
  Virus inhibition rate (%): 15.77% and 13.75% and 27.14%
CVA16; 1.25 μM
  Virus inhibition rate (%): 59.05% and 58.86% and 50.79%
CVA16; 2.5 μM
  Virus inhibition rate (%): 93.52% and 84.17% and 77.93%
CVA16; 5 μM
  Virus inhibition rate (%): 104.7% and 107.3% and 106.2%
CVA16; RD cells
  effect on CVA16, in words: can significantly inhibit CVA16
  IC50: 0.856 µM

## RRRRRRRREEVRQYCRDQ [P2]
EV71; 293T cells, read-out: IC50 against EV71 by qRT-PCR
  IC50: 9.68 µM
CVA16; RD cells
  IC50: 1.53 µM

## YGRKKRRQRRRGSGEAVREYCK [BP8]
Vero cells; 3.0625 μM
  Cell viability (%): 105.2007% and 108.7417%
Vero cells; 6.125 μM
  Cell viability (%): 111.3814% and 119.3004%
Vero cells; 12.5 μM
  Cell viability (%): 106.8102% and 109.1924%
Vero cells; 25 μM
  Cell viability (%): 99.47% and 113.6348%
Vero cells; 50 μM
  Cell viability (%): 108.2266% and 112.4759%
Vero cells; 100 μM
  Cell viability (%): 96.7% and 97.35%
Vero cells; 200 μM
  Cell viability (%): 92.0023% and 92.52%
Vero cells; CCK-8, 24 h
  cytotoxicity, result in words: not toxic to cells within 200 μM
[1]; 3.0625 μM
  viability at 24 h, 3.0625 µM: 103%
[1]; 6.125 μM
  viability at 24 h, 6.125 µM: 101%
[1]; 12.5 μM
  viability at 24 h, 12.5 µM: 95.5%
[1]; 25 μM
  viability at 24 h, 25 µM: 96.6%
[1]; 50 μM
  viability at 24 h, 50 µM: 94.4%
[1]; 100 μM
  viability at 24 h, 100 µM: 99.7%
[1]; 200 μM
  viability at 24 h, 200 µM: 87.2%

## YGRKKRRQRRRGSGEEVRQYCR [ER]
CVA16; RD cells
  IC50: 3.21 µM
